This note sets out measurements from US7846924B2, “Cyanopyrroles” (Wyeth LLC, priority 1999, dated 2010).

The melting point is the temperature of the solid-liquid transition.

`CC1(C)OC(=O)Nc2ccc(-c3ccc(C#N)[nH]3)cc21` [Example 1, 5-(4,4-Dimethyl-2-oxo-1,4-dihydro-2H-benzo[d][1,3]oxazin-6-yl)-1H-pyrrole-2-carbonitrile] came in with a melting point of 241 to 242 °C.

Take `CC1(C)C(=O)Nc2ccc(C3(C#N)C=CC=N3)cc21` (stereo not drawn) [Example 3, 2-(3,3-Dimethyl-2-oxo-2,3-dihydro-1H-indol-5-yl)-2-cyanopyrrole]: the melting point was 255.9 to 257.9 °C.

`CCn1c(C#N)ccc1-c1ccc2c(c1)C(C)(C)OC(=O)N2` [Example 6, 5-(4,4-Dimethyl-2-oxo-1,4-dihydro-2H-3,1-benzoxazin-6-yl)-1-ethyl-1H-pyrrole-2-carbonitrile] displayed a melting point of 200 to 202 °C.

As to `C#CCn1c(C#N)ccc1-c1ccc2c(c1)C(C)(C)OC(=O)N2` [Example 7, 5-(4,4-dimethyl-2-oxo-1,4-Dihydro-2H-3,1-benzoxazin-6-yl)-1-prop-2-ynyl-1H-pyrrole-2-carbonitrile], the melting point was 222 to 224 °C.

Take `CC(C)(C)OC(=O)Cn1c(C#N)ccc1-c1ccc2c(c1)C(C)(C)OC(=O)N2` [Example 8, tert-butyl[2-cyano-5-(4,4-dimethyl-2-oxo-1,4-dihydro-2H-3,1-benzoxazin-6-yl)-1H-pyrrol-1-yl]acetate]: the melting point lay within 188 to 190 °C.

Regarding `CC1(C)OC(=O)Nc2ccc(-c3ccc(C#N)n3CC(=O)O)cc21` [Example 9, [2-Cyano-5-(4,4-dimethyl-2-oxo-1,4-dihydro-2H-3,1-benzoxazin-6-yl)-1H-pyrrol-1yl]acetic acid], the melting point lay in the range of 207 to 209 °C.

`CCOc1cc(CCNC(=O)Cn2c(C#N)ccc2-c2ccc3c(c2)C(C)(C)OC(=O)N3)ccc1OC` [Example 10, 2-[2-cyano-5-(4,4-dimethyl-2-oxo-1,4-dihydro-2H-3,1-benzoxazin-6-yl)-1H-pyrrol-1-yl]-N-[2-(3-ethoxy-4-methoxyphenyl)ethyl]acetamide] yielded a melting point of 160 to 162 °C.

In turn, `CCCCCn1c(C#N)ccc1-c1ccc2c(c1)C(C)(C)OC(=O)N2` [Example 11, 5-(4,4-Dimethyl-2-oxo-1,4-dihydro-2H-3,1-benzoxazine-6-yl)-1-pentyl-1H-pyrrole-2-carbonitrile] came in with a melting point of 128 to 131 °C.

For the compound `CN1C(=O)OC(C)(C)c2cc(-c3ccc(C#N)[nH]3)ccc21` [Example 12, 5-(1,4,4-trimethyl-2-oxo-1,4-dihydro-2H-3,1-benzoxazin-6-yl)-1H-pyrrole-2-carbonitril], the melting point is 256 to 257 °C (dec.).
